Source: patent USRE42890E1, “Furazanobenzimidazoles” (Basilea Pharmaceutica AG, priority 2003, dated 2011)
Like-named read-outs stand apart in the source and are kept apart here.

Key:
[1] = test system: MRC5; assay: MTS proliferation assay, MRC5; assay type: cell-based; conditions: MRC5, 72 h incubation, read-out: MTS proliferation assay IC 50 MRC5
Method in brief: (§1)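 Seed cells in complete RPMI-1640 medium and allow 24 h attachment. Add compounds to final 10 μM, 3 μM, 1 μM or 0.3 μM and incubate 72 h at 37° C. Add MTS, incubate 3 h more, then measure absorption at 492 nm.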

[2] = test system: HeLa; assay: MTS proliferation assay, HeLa; assay type: cell-based, human; conditions: 72 h incubation, read-out: MTS proliferation assay IC 50 HeLa
Method in brief: (§2)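 Human lines, EGFP-transfected or not, grow in RPMI-1640 plus 5% or 10% FCS and 2-mercaptoethanol. They receive test compound for 72 h at final concentrations of 10, 3, 1 and 0.3 μM, and MTS conversion is measured at 492 nm.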

[3] = test system: Jurkat; assay: MTS proliferation assay, Jurkat; assay type: cell-based, human; conditions: 72 h incubation, read-out: MTS proliferation assay IC 50 Jurkat
Method in brief: as §2

[4] = test system: adherent cells or suspension cells; assay: Hoechst 33342 nuclear staining (fraction of apoptotic nuclei); assay type: cell-based; set-up: key: 0 relating to no activity; 1 relating to weak activity comprising less than 70% of the cells; score 2 relating to strong activity comprising more than 70% of the cells
[5] = test system: Jily; assay: MTS proliferation assay, Jily; assay type: cell-based; conditions: 72 h incubation, read-out: MTS proliferation assay IC 50 Jily
Method in brief: as §1

[6] = test system: HT1080; assay: MTS proliferation assay, HT1080; assay type: cell-based, human; conditions: HT1080, 72 h incubation, read-out: MTS proliferation assay IC 50 HT1080
Method in brief: as §2

Compound | Hoechst 33342 nuclear staining score ([4]; H460, conc 0.01 μm) | Hoechst 33342 nuclear staining score ([4]; H460, conc 0.1 μm) | Hoechst 33342 nuclear staining score ([4]; H460, conc 1 μm) | Hoechst 33342 nuclear staining score ([4]; HeLa, conc 0.01 μm) | Hoechst 33342 nuclear staining score ([4]; HeLa, conc 0.1 μm) | Hoechst 33342 nuclear staining score ([4]; HeLa, conc 1 μm) | Hoechst 33342 nuclear staining score ([4]; Jily, conc 0.01 μm) | Hoechst 33342 nuclear staining score ([4]; Jily, conc 0.1 μm) | Hoechst 33342 nuclear staining score ([4]; Jily, conc 1 μm) | Hoechst 33342 nuclear staining score ([4]; Jurkat, conc 0.01 μm) | Hoechst 33342 nuclear staining score ([4]; Jurkat, conc 0.1 μm) | Hoechst 33342 nuclear staining score ([4]; Jurkat, conc 1 μm) | Hoechst 33342 nuclear staining score ([4]; MRC5, conc 0.01 μm) | Hoechst 33342 nuclear staining score ([4]; MRC5, conc 0.1 μm) | Hoechst 33342 nuclear staining score ([4]; MRC5, conc 1 μm) | Hoechst 33342 nuclear staining score ([4]; PBLs, conc 0.01 μm) | Hoechst 33342 nuclear staining score ([4]; PBLs, conc 0.1 μm) | Hoechst 33342 nuclear staining score ([4]; PBLs, conc 1 μm) | IC50 [5] [nM] | IC50 [1] [nM] | other results
Nc1nonc1-c1nc2ccccc2n1COc1ccc(F)cc1 [Example 8, 4-[1-(4-Fluorophenoxymethyl)-1H-benzimidazol-2-yl]-furazan-3-ylamine] | 0 | 0 | 0 | 0 | 0 | 1 (1 relating to weak activity comprising less than 70% of the cells) | 0 | 0 | 0 | 0 | 0 | 1 (1 relating to weak activity comprising less than 70% of the cells) | 0 | 0 | 0 | 0 | 0 | 0 | 100 to 1000 | – | IC50 ([1]; Homo sapiens): 100 to 1000 nM; IC50 ([2]; Homo sapiens): 100 to 1000 nM; IC50 ([3]; Homo sapiens): 100 to 1000 nM; IC50 ([6]; Homo sapiens, HT-1080): 100 to 1000 nM
Nc1nonc1-c1nc2ccccc2n1CC(=O)c1cccs1 [Example 72] | 0 | 0 | 2 (score 2 relating to strong activity comprising more than 70% of the cells) | 0 | 0 | 2 (score 2 relating to strong activity comprising more than 70% of the cells) | 0 | 0 | 2 (score 2 relating to strong activity comprising more than 70% of the cells) | 0 | 1 (1 relating to weak activity comprising less than 70% of the cells) | 2 (score 2 relating to strong activity comprising more than 70% of the cells) | 0 | 0 | 0 | 0 | 0 | 0 | 100 to 1000 | 100 to 1000 | IC50 [2]: 100 to 1000 nM; IC50 [3]: 100 to 1000 nM; IC50 [6]: 100 to 1000 nM
Cl.Nc1ccc(C(=O)Cn2c(-c3nonc3N)nc3ccccc32)cc1 [Example 51] | 0 | 2 (score 2 relating to strong activity comprising more than 70% of the cells) | 2 (score 2 relating to strong activity comprising more than 70% of the cells) | 0 | 2 (score 2 relating to strong activity comprising more than 70% of the cells) | 2 (score 2 relating to strong activity comprising more than 70% of the cells) | 0 | 2 (score 2 relating to strong activity comprising more than 70% of the cells) | 2 (score 2 relating to strong activity comprising more than 70% of the cells) | 1 (1 relating to weak activity comprising less than 70% of the cells) | 2 (score 2 relating to strong activity comprising more than 70% of the cells) | 2 (score 2 relating to strong activity comprising more than 70% of the cells) | 0 | 2 (score 2 relating to strong activity comprising more than 70% of the cells) | 2 (score 2 relating to strong activity comprising more than 70% of the cells) | 0 | 0 | 0 | 10 to 100 | 10 to 100 | IC50 [2]: 10 to 100 nM; IC50 [3]: 10 to 100 nM; IC50 [6]: 10 to 100 nM
Cl.Nc1ccc(OCn2c(-c3nonc3N)nc3ccccc32)cc1 [Example 100] | 0 | 0 | 0 | 0 | 0 | 0 | 0 | 0 | 1 (1 relating to weak activity comprising less than 70% of the cells) | 0 | 0 | 1 (1 relating to weak activity comprising less than 70% of the cells) | 0 | 0 | 0 | 0 | 0 | 0 | > 1000 | > 1000 | IC50 [2]: > 1000 nM; IC50 [3]: 100 to 1000 nM; IC50 [6]: > 1000 nM
Nc1nonc1-c1nc2ccccc2n1CC(=O)/C=C/c1ccccc1 [Example 12, E-1-[2-(4-Aminofurazan-3-yl)-benzimidazol-1-yl]-4-phenyl-but-3-en-2-one] | 0 | 0 | 0 | 0 | 0 | 0 | 0 | 0 | 2 (score 2 relating to strong activity comprising more than 70% of the cells) | 0 | 0 | 2 (score 2 relating to strong activity comprising more than 70% of the cells) | 0 | 0 | 0 | 0 | 0 | 0 | 100 to 1000 | – | IC50 ([1]; Homo sapiens): > 1000 nM; IC50 ([2]; Homo sapiens): > 1000 nM; IC50 ([3]; Homo sapiens): 100 to 1000 nM; IC50 ([6]; Homo sapiens, HT-1080): > 1000 nM
Nc1nonc1-c1nc2ccccc2n1COc1ccc(Cl)cc1 [Example 88] | – | – | – | 0 | 0 | 2 (score 2 relating to strong activity comprising more than 70% of the cells) | 0 | 0 | 1 (1 relating to weak activity comprising less than 70% of the cells) | 0 | 0 | 2 (score 2 relating to strong activity comprising more than 70% of the cells) | 0 | 0 | 0 | 0 | 0 | 0 | 100 to 1000 | 100 to 1000 | IC50 [2]: 100 to 1000 nM; IC50 [3]: 100 to 1000 nM; IC50 [6]: 100 to 1000 nM
